According to BindingDB's records for doi:10.1021/cb4002552 (University of California, 2013):
pKd: −log10 of the molar value.

The molecules below were run against Neutrophil gelatinase-associated lipocalin (Homo sapiens, UniProt P80188) (assay: Fluorescence quenching titrations). Settings: pH 7.4.
Neutrophil gelatinase-associated lipocalin, sequence (P80188 whole entry): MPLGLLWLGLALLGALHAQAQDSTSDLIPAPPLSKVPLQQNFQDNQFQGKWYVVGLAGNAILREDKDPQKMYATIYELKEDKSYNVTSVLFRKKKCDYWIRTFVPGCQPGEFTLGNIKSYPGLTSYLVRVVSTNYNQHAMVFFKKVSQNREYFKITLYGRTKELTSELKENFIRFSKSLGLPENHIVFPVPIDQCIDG
Procedure: The ligand solutions (10uM siderophore, TBS with 5% (v/v) DMSO, pH 7.4) were prepared from 4mM stock solution in DMSO. The protein solution was prepared as previously reported. Small amounts of ligand solution were mixed with the protein solution and equilibrated for at least 4 min before fluorescence measurement. The data was fit to a one-to-one binding model with two parameters, Kd and fluorescence response, using the program DYNAFIT.
Molecule `C[C@@H](O)[C@H](NC(=O)c1cccc(O)c1O)C(=O)N(CCCNC(=O)c1cccc(O)c1O)CCCNC(=O)c1cccc(O)c1O` [Fluvibactin A] has a pKd of 7.92. With `C[C@H]1OC(c2cccc(O)c2O)=N[C@@H]1C(=O)N(CCCNC(=O)c1cccc(O)c1O)CCCNC(=O)c1cccc(O)c1O` [Fluvibactin] the pKd was 7.47. `C[C@@H](O)[C@H](NC(=O)c1cccc(O)c1O)C(=O)NCCCN(CCCNC(=O)c1cccc(O)c1O)C(=O)[C@@H](NC(=O)c1cccc(O)c1O)[C@@H](C)O` [Vibriobactin A] was tested, and the pKd was 7.74.
